Measurements from US20230250096A1, “SUBSTITUTED PHENYL-1H-PYRROLO[2,3-c] PYRIDINE DERIVATIVES” (Janssen Pharmaceutica NV, priority 2021, published 2023).

Experiments:
[1] = biological target: T1, menin/MLL (terbium chelate-labeled menin, FITC-MBM1 peptide) (Homo sapiens, UniProt O00255, T541A); assay: Menin/MLL homogenous time-resolved fluorescence (HTRF) assay; format: binding; conditions: 30 min incubation
T1 construct: Menin (a.a 1-610-6xhis tag, 2.3 mg/mL in 20 mM Hepes)
T1 sequence (O00255 with tags, fused parts or gaps T541A): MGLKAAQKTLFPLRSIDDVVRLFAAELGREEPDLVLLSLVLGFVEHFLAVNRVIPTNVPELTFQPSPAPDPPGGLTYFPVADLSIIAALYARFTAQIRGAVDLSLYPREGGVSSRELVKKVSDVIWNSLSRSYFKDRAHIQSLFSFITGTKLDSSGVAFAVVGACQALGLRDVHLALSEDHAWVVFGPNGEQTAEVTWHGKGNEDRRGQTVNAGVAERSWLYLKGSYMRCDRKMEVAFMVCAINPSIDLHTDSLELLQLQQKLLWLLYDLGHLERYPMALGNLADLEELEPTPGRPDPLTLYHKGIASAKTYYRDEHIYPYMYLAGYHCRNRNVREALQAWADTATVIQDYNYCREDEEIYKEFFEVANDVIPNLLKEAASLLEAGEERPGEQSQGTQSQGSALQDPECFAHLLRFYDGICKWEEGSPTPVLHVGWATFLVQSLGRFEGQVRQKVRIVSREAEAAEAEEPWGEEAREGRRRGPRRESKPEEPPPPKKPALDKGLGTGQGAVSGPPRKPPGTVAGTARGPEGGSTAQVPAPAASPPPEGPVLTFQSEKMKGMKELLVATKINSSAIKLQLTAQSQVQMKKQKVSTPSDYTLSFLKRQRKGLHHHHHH
Summary of the method: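 Competition binding read by time-resolved FRET (FITC 520 nm over terbium 490 nm) after compound meets labeled menin 1-610-His […] for 30 min, then FITC-MBM1 (75 nM) for 15 min, ambient temperature, 0.5% DMSO. Eleven-point four-fold dilutions, usually starting at 10 μM, fitted to four-parameter curves for IC50.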

MEIS1 mRNA expression = MEIS1 mRNA expression assay (Quantigene Singleplex) in MOLM14 cells; format: cell-based, human; conditions: 48 hours incubation
Summary of the method: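 Read-out: MEIS1 transcript counts, background-subtracted and divided by RPL28, expressed as fold change over DMSO-treated cells, then dose-response modelled for IC50. MOLM14 cells (3,750/well) received graded compound for 48 h before lysis and QuantiGene hybridization at 55 °C.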

SMILES	IC50 [1] [nM]	IC50 (MEIS1 mRNA expression; Homo sapiens, MOLM-14, 48 h) [nM]	IC50 (MEIS1 mRNA expression) [nM]
CCN(C(=O)c1cc(F)ccc1-n1cc(CC2CN(C(C(C)C)[C@H]3C[C@H](N4CCN(C(C)=O)CC4)C3)C2)c2c(C)cncc21)C(C)C (stereo partly shown) [Compound 35b]	0.077	47	–
CCN(C(=O)c1cc(F)ccc1-n1cc(CC2CN(C(C(C)C)[C@H]3C[C@H](N4CCN(S(C)(=O)=O)CC4)C3)C2)c2c(C)cncc21)C(C)C (stereo partly shown) [Compound 37b]	0.237	28	–
Cc1cncc2c1c(CC1CN(CC3CCN(C(=O)OC(C)(C)C)CC3)C1)cn2-c1ccc(F)cc1C(=O)N(C)C(C)C [Compound 62]	0.085	14	–
Cc1cncc2c1c(CC1CN(CC3CCN(S(C)(=O)=O)CC3)C1)cn2-c1ccc(F)cc1C(=O)N(C)C(C)C [Compound 64]	0.284	~39	–
COC(=O)N1CCC(CN2CC(Cc3cn(-c4ccc(F)cc4C(=O)N(C)C(C)C)c4cncc(C)c34)C2)CC1 [Compound 65]	0.079	45	–
Cc1cncc2c1c(CC1CN(CC(=O)N3CCOCC3)C1)cn2-c1ccc(F)cc1C(=O)N(C)C(C)C [Compound 83]	1.3	2220	–
Cc1cncc2c1c(CC1CN(C3CC4(CC(NC(=O)OC(C)(C)C)C4)C3)C1)cn2-c1ccc(F)cc1C(=O)N(C)C(C)C (stereo not shown) [Compound 91]	0.155	94	–
Cc1cncc2c1c(CC1CN(CC3CCC4(CC3)OCCO4)C1)cn2-c1ccc(F)cc1C(=O)N(C)C(C)C [Compound 92]	0.219	52	–
CC(=O)N1CCC(CN2CCC(Cc3cn(-c4ccc(F)cc4S(=O)(=O)C(C)C)c4cncc(C)c34)C2)CC1 (stereo not shown) [Compound 93]	0.418	~360	–
CC(=O)N1CCC(CN2CC(Cc3cn(-c4ccc(F)cc4C(=O)N(C)C(C)C)c4cncc(C)c34)C2)C1 (stereo not shown) [Compound 94]	0.079	309	–
Cc1cncc2c1c(CC1CN(CC3CCCC(=O)N3)C1)cn2-c1ccc(F)cc1C(=O)N(C)C(C)C (stereo not shown) [Compound 95]	0.601	~914	–
Cc1cncc2c1c(CC1CN(CC(=O)N3CCC(F)(F)C3)C1)cn2-c1ccc(F)cc1C(=O)N(C)C(C)C [Compound 96]	4.57	3690	–
Cc1cncc2c1c(CC1CN(CC(=O)N3CC4CC4C3)C1)cn2-c1ccc(F)cc1C(=O)N(C)C(C)C (stereo not shown) [Compound 97]	1.97	1610	–
Cc1cncc2c1c(CC1CN(CC(=O)N3CCCCC3)C1)cn2-c1ccc(F)cc1C(=O)N(C)C(C)C [Compound 98]	0.747	~535	–
CC(=O)N1CC(CN2CCC(Cc3cn(-c4ccc(F)cc4C(=O)N(C)C(C)C)c4cncc(C)c34)CC2)C1 [Compound 102]	3.02	> 1000	–
Cc1cncc2c1c(CC1CCN(C[C@@H]3CCC(=O)N3)CC1)cn2-c1ccc(F)cc1C(=O)N(C)C(C)C [Compound 105]	0.728	> 1000	–
CC(=O)N1CC2(CC(CN3CCC(Cc4cn(-c5ccc(F)cc5C(=O)N(C)C(C)C)c5cncc(C)c45)C3)C2)C1 (stereo not shown) [Compound 107]	0.188	226	–
Cc1cncc2c1c(CC1CCN(CC3CCOCC3)CC1)cn2-c1ccc(F)cc1C(=O)N(C)C(C)C [Compound 109]	0.304	53	–
Cc1cncc2c1c(CC1CCN(C[C@H]3CCC(=O)N3)CC1)cn2-c1ccc(F)cc1C(=O)N(C)C(C)C [Compound 110]	1.8	~1070	–
COCC(=O)N1CC(CN2CCC(Cc3cn(-c4ccc(F)cc4C(=O)N(C)C(C)C)c4cncc(C)c34)CC2)C1 [Compound 111]	0.745	~707	–
CC(=O)N1CC[C@@H](CN2CCC(Cc3cn(-c4ccc(F)cc4C(=O)N(C)C(C)C)c4cncc(C)c34)CC2)C1 [Compound 112]	0.555	345	–
CC(=O)N1CC[C@H](CN2CCC(Cc3cn(-c4ccc(F)cc4C(=O)N(C)C(C)C)c4cncc(C)c34)CC2)C1 [Compound 113]	0.642	~493	–
CC(=O)N1CC(CN2CC(Cc3cn(-c4ccc(F)cc4C(=O)N(C)C(C)C)c4cncc(C)c34)C2)C1 [Compound 114]	0.173	487	–
Cc1cncc2c1c(CC1CN(C[C@H]3CC[C@H](NS(C)(=O)=O)CC3)C1)cn2-c1ccc(F)cc1C(=O)N(C)C(C)C [Compound 115]	0.021	11	–

SMILES	IC50 [1] [nM]	IC50 (MEIS1 mRNA expression; Homo sapiens, MOLM-14, 48 h) [nM]	IC50 (MEIS1 mRNA expression) [nM]
CC(=O)N[C@H]1CC[C@H](CN2CC(Cc3cn(-c4ccc(F)cc4C(=O)N(C)C(C)C)c4cncc(C)c34)C2)CC1 [Compound 118]	0.139	117	–
CNC(=O)C1CC(CN2CCC(Cc3cn(-c4ccc(F)cc4C(=O)N(C)C(C)C)c4cncc(C)c34)CC2)C1 (stereo not shown) [Compound 129]	0.291	277	–
CC(=O)N1CCC(CN2C[C@H](Cc3cn(-c4ccc(F)cc4C(=O)N(C)C(C)C)c4cncc(C)c34)C[C@H]2C)CC1 [Compound 130]	1.2	314	–
CC(=O)N1CCC(CN2C[C@@H](Cc3cn(-c4ccc(F)cc4C(=O)N(C)C(C)C)c4cncc(C)c34)C[C@H]2C)CC1 [Compound 131]	0.132	129	–
CC(=O)N1CCC(CN2C[C@H](Cc3cn(-c4ccc(F)cc4C(=O)N(C)C(C)C)c4cncc(C)c34)C[C@@H]2C)CC1 [Compound 132]	1.21	~573	–
CC(=O)N1CCC(CN2C[C@@H](Cc3cn(-c4ccc(F)cc4C(=O)N(C)C(C)C)c4cncc(C)c34)C[C@@H]2C)CC1 [Compound 133]	0.051	42	–
Cc1cncc2c1c(CC1CN(C[C@H]3CC[C@H](C(=O)N(C)C)CC3)C1)cn2-c1ccc(F)cc1C(=O)N(C)C(C)C [Compound 142]	0.086	10	–
CCNC(=O)[C@H]1CC[C@H](CN2CC(Cc3cn(-c4ccc(F)cc4C(=O)N(C)C(C)C)c4cncc(C)c34)C2)CC1 [Compound 143]	0.064	5	–
CC(=O)N1CCC(CN2CCC[C@H](Cc3cn(-c4ccc(F)cc4C(=O)N(C)C(C)C)c4cncc(C)c34)C2)CC1 [Compound 145]	1.06	~748	–
CC(=O)N1CCC(CN2CCC[C@@H](Cc3cn(-c4ccc(F)cc4C(=O)N(C)C(C)C)c4cncc(C)c34)C2)CC1 [Compound 146]	1.22	> 1000	–
Cc1cncc2c1c(C[C@@H]1CCN(CC3CCN(C(=O)N(C)C)CC3)C1)cn2-c1ccc(F)cc1C(=O)N(C)C(C)C [Compound 149]	0.037	23	–
Cc1cncc2c1c(C[C@@H]1CCN(CC3CCN(C(=O)NC4CC4)CC3)C1)cn2-c1ccc(F)cc1C(=O)N(C)C(C)C [Compound 152]	0.053	197	–
CC(=O)N1CCC(CN2CCCC(Cc3cn(-c4ccc(F)cc4C(=O)N(C)C(C)C)c4cncc(C)c34)CC2)CC1 (stereo not shown) [Compound 160]	4.02	> 1000	–
Cc1cncc2c1c(C[C@@H]1CCN(C[C@H]3CC[C@H](C(=O)N4CCC4)CC3)C1)cn2-c1ccc(F)cc1C(=O)N(C)C(C)C [Compound 179]	0.405	259	–
CC(=O)N1C[C@@H]2[C@@H](CN3CC[C@@H](Cc4cn(-c5ccc(F)cc5C(=O)N(C)C(C)C)c5cncc(C)c45)C3)[C@@H]2C1 [Compound 187]	1.02	1940	–
Cc1cncc2c1c(C[C@@H]1CCN(CC3CCCCC3)C1)cn2-c1ccc(F)cc1C(=O)N(C)C(C)C [Compound 193]	0.071	41	–
Cc1cncc2c1c(C[C@H]1CCN(CC3CCCCC3)C1)cn2-c1ccc(F)cc1C(=O)N(C)C(C)C [Compound 194]	0.072	66	–
Cc1cncc2c1c(CC1CCN(CC3CCC(=O)NC3)CC1)cn2-c1ccc(F)cc1C(=O)N(C)C(C)C (stereo not shown) [Compound 195]	0.153	156	–
Cc1cncc2c1c(CC1CN(CC3CNCC(=O)C3)C1)cn2-c1ccc(F)cc1C(=O)N(C)C(C)C (stereo not shown) [Compound 196]	0.19	438	–
CC(=O)NC1CCC(N2CC[C@H](Cc3cn(-c4ccc(F)cc4C(=O)N(C)C(C)C)c4cncc(C)c34)C2)CC1 (stereo partly shown) [Compound 210]	0.602	–	> 1000
Cc1cncc2c1c(C[C@@H]1CCN(CC3(C)CCN(C(N)=O)CC3)C1)cn2-c1ccc(F)cc1C(=O)N(C)C(C)C [Compound 217]	0.039	21	–
Cc1cncc2c1c(C[C@H]1CCN(CC3(C)CCN(C(N)=O)CC3)C1)cn2-c1ccc(F)cc1C(=O)N(C)C(C)C [Compound 218]	0.094	48	–
Cc1cncc2c1c(CC1CN(CC3(C)CCN(C(N)=O)CC3)C1)cn2-c1ccc(F)cc1C(=O)N(C)C(C)C [Compound 219]	0.039	32	–
